Laboratory results taken from patent US7799809B2, “Carboxamide compounds and their use as calpain inhibitors” (Abbott GmbH & Co. KG, priority 2006, dated 2010).

Biological target: T1, cathepsin S (Homo sapiens, UniProt P25774)
T1 construct: purchased Calbiochem 219343; host or cells: E. coli
Test: Cathepsin S enzyme inhibition in vitro (kinetic fluorescence assay)
Type: biochemical
Details: recombinant human cathepsin S vs calpain I
Experimental: The following solutions and buffers were employed: • HBS (for 40 ml): 800 μl M HEPES; 2.16 ml 100 mM KCl; 4.8 ml 1M NaCl; 3.59 ml 5% glucose; 60 μl μM MgSO4; 400 μl 100 mM Na pyruvate, 28.19 ml water; pH 7.2-7.5. • lysis buffer (for 20 ml): 400 μl M Tris pH 8.2; 2.74 ml 1M NaCl; 520 μl 0.5M EDTA; 2 ml 10% triton X-100; 0.8 ml (=1:25) CompletePlus (1 tablet/2 ml H2O); 200 μl 100 mM Pefabloc; 13.34 ml water, pH 8.2. • TBST (10×) (for 1 l): 100 mM Tris (12.1 g); 1.5M NaCl (87 g); 1% Tween 20 (10 g), adjusted to pH 8. I Enzyme Inhibition In Vitro: • Testing for blockade of the corresponding enzymic activities was carried out by means of kinetic fluorescence assays (excitation 390 nm, emission 460 nm). • Apparent Ki values were calculated from the experimentally determined IC50 values by the Cheng-Prussoff relation assuming a reversible competitive enzyme inhibition. The Km values of the substrates used under the assay conditions indicated above were: 90 μM (Z-Phe-Arg-AMC, cathepsin B), 10 μM (Z-Gly-Pro-Arg-AMC, cathepsin K), 2 μM (Z-Phe-Arg-AMC, cathepsin L), and 30 μM (Z-Val-Val-Arg-AMC, cathepsin S). • The indicated Ki values are averages of the inhibition constants calculated on the basis of 2 to 4 independent dose-effect plots.
The following assays were used: • 1. Calpain I: • 20 nM calpain-I—isolated from human erythrocytes (Calbiochem #208713), 100 μM Suc-Leu-Tyr-AMC (Bachem #1-1355) as substrate in buffer with 62 mM imidazole, 0.3 mM CaCl2, 0.10% CHAPS, 0.05% BSA, 1 mM DTT at pH 7.3 and room temperature. • 2. Cathepsin B: • 0.25 nM cathepsin B—isolated from human liver (Calbiochem #219362), 100 μM Z-Phe-Arg-AMC (Bachem #I-1160) as substrate 50 mM MES, 2 mM EDTA, 0.05% Brij 35, 2.5 mM L-cysteine, pH 6.0, room temperature. • 3. Cathepsin K: • 3 nM cathepsin K—activated from recombinant human procathepsin K from E. coli (Calbiochem #342001), 10 μM Z-Gly-Pro-Arg-AMC (Biomol #P-142) as substrate in 50 mM MES, 2 mM EDTA, 0.05% Brij 35, 2.5 mM L-cysteine, pH 6.0, room temperature. • 4. Cathepsin L: • 1 nM cathepsin L—isolated from human liver (Calbiochem #219402), 2 μM Z-Phe-Arg-AMC (Bachem #1-1160) as substrate in 50 mM MES, 2 mM EDTA, 0.05% Brij 35, 2.5 mM L-cysteine, pH 6.0, room temperature. • 5. Cathepsin S: • 0.5 nM recombinant human cathepsin S from E. coli (Calbiochem #219343), 20 μM Z-Val-Val-Arg-AMC (Bachem #1-1540) as substrate in 50 mM MES, 2 mM EDTA, 0.05% Brij 35, 2.5 mM L-cysteine, pH 6.0, room temperature. • The results of the in vitro determination are indicated in Table 1. The following abbreviations are used in Table 1: • The “Calpain activity” column, ++ stands for a calpain Ki (Ki(calpain)) of ≦40 nM and + means: 40 nM<Ki(Calpain)≦100 nM. • The “Sel. cat. B” column indicates the Ki(cathepsin B)/Ki(calpain) ratio. In this connection, ++ means a Ki(cathepsin B)/Ki(calpain) ratio of ≧30 and + means 10≦Ki(cathepsin B)/Ki(calpain)<30. • The “Sel. cat. K” column indicates the Ki(cathepsin K)/Ki(calpain) ratio. In this connection, ++ means a Ki(cathepsin K)/Ki(calpain) ratio of ≧30 and + means 10≦Ki(cathepsin K)/Ki(calpain)<30. • The “Sel. cat. L” column indicates the Ki(cathepsin L)/Ki(calpain) ratio. In this connection, ++ means a Ki(cathepsin L)/Ki(calpain) ratio of ≧50 and + means 30≦Ki(cathepsin L)/Ki(calpain)<50. • The “Sel. cat. S” column indicates the Ki(cathepsin S)/Ki(calpain) ratio. In this connection, ++ means a Ki(cathepsin S)/Ki(calpain) ratio of ≧100 and + means 50≦Ki(cathepsin S)/Ki(calpain)<100.

T1 sequence (P25774 115-331): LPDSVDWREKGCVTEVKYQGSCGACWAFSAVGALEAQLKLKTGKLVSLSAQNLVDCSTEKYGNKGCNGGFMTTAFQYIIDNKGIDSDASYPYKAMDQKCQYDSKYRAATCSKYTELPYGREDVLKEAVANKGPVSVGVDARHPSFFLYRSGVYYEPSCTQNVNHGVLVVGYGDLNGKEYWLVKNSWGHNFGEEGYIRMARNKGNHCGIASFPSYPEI

Structure (SMILES) | Sel cat. S: Ki(cathepsin S)/Ki(calpain) ratio
NC(=O)C(=O)C(Cc1ccccc1)NC(=O)c1cccnc1-n1cc(-c2ccccc2F)cn1 (centres unmarked) [Example 104, N-[3-Amino-2,3-dioxo-1-(phenylmethyl)propyl]-2-[4-(2-fluorophenyl)-1H-pyrazol-1-yl]pyridine-3-carboxamide] | + (+ means 50≦Ki(cathepsin S)/Ki(calpain)<100)
CCCCC(NC(=O)c1cccnc1-n1ccc(-c2ccccc2)n1)C(=O)C(N)=O (centres unmarked) [Example 6, N-{1-[Amino(oxo)acetyl]pentyl}-2-(3-phenyl-1H-pyrazol-1-yl)nicotinamide] | + (+ means 50≦Ki(cathepsin S)/Ki(calpain)<100)
NC(=O)C(=O)C(Cc1ccccc1)NC(=O)c1cccnc1-n1cc(CN2CCCC2)c(-c2cccc(C(F)(F)F)c2)n1 (centres unmarked) [Example 178, N-[3-Amino-2,3-dioxo-1-(phenylmethyl)propyl]-2-{4-(pyrrolidin-1-ylmethyl)-3-[3-(trifluoromethyl)phenyl]-1H-pyrazol-1-yl}pyridine-3-carboxamide] | ++ (++ means a Ki(cathepsin S)/Ki(calpain) ratio of ≧100)
NC(=O)C(=O)C(Cc1ccccc1)NC(=O)c1cccnc1-n1ccc(-c2ccc(CN3CCOCC3)cc2)n1 (centres unmarked) [Example 46, N-(3-Amino-1-benzyl-2,3-dioxopropyl)-2-{3-[4-(morpholin-4-ylmethyl)phenyl]-1H-pyrazol-1-yl}nicotinamide] | ++ (++ means a Ki(cathepsin S)/Ki(calpain) ratio of ≧100)
CCCCC(NC(=O)c1cccnc1-n1ccc(-c2ccc(CN(CC)CC)cc2)n1)C(=O)C(N)=O (centres unmarked) [Example 44, N-{1-[Amino(oxo)acetyl]pentyl}-2-(3-{4-[(diethylamino)methyl]phenyl}-1H-pyrazol-1-yl)nicotinamide] | + (+ means 50≦Ki(cathepsin S)/Ki(calpain)<100)
NC(=O)C(=O)C(Cc1ccccc1)NC(=O)c1cccnc1-n1ccc(-c2ccncc2)n1 (centres unmarked) [Example 65, N-(3-Amino-1-benzyl-2,3-dioxopropyl)-2-(3-pyridin-4-yl-1H-pyrazol-1-yl)nicotinamide] | ++ (++ means a Ki(cathepsin S)/Ki(calpain) ratio of ≧100)
CCN(CC)Cc1ccc(-c2ccn(-c3ncccc3C(=O)NC(Cc3ccccc3)C(=O)C(N)=O)n2)cc1.Cl (centres unmarked) [Example 43, N-(3-Amino-1-benzyl-2,3-dioxopropyl)-2-(3-{4-[(diethylamino)methyl]phenyl}-1H-pyrazol-1-yl)nicotinamide hydrochloride] | ++ (++ means a Ki(cathepsin S)/Ki(calpain) ratio of ≧100)
NC(=O)C(=O)C(Cc1ccccc1)NC(=O)c1cccnc1-n1cc(CN2CCOCC2)c(-c2cccc(C(F)(F)F)c2)n1 (centres unmarked) [Example 177, N-[3-Amino-2,3-dioxo-1-(phenylmethyl)propyl]-2-{4-(morpholin-4-ylmethyl)-3-[3-(trifluoromethyl)phenyl]-1H-pyrazol-1-yl}pyridine-3-carboxamide] | ++ (++ means a Ki(cathepsin S)/Ki(calpain) ratio of ≧100)
NC(=O)C(=O)C(Cc1ccccc1)NC(=O)c1cccnc1-n1ccc(-c2ccc(-n3ccnc3)cc2)n1 (centres unmarked) [Example 101, N-[3-Amino-2,3-dioxo-1-(phenylmethyl)propyl]-2-{3-[4-(1H-imidazol-1-yl)phenyl]-1H-pyrazol-1-yl}pyridine-3-carboxamide] | ++ (++ means a Ki(cathepsin S)/Ki(calpain) ratio of ≧100)
Cl.NC(=O)C(=O)C(Cc1ccccc1)NC(=O)c1cccnc1-n1ccc(-c2cccc(CN3CCOCC3)c2)n1 (centres unmarked) [Example 52, N-(3-Amino-1-benzyl-2,3-dioxopropyl)-2-{3-[3-(morpholin-4-ylmethyl)phenyl]-1H-pyrazol-1-yl}nicotinamide hydrochloride] | ++ (++ means a Ki(cathepsin S)/Ki(calpain) ratio of ≧100)
CCCCC(NC(=O)c1cccnc1-n1ccc(-c2ccc(N(CC)CC)cc2)n1)C(=O)C(N)=O (centres unmarked) [Example 47, N-{1-[Amino(oxo)acetyl]pentyl}-2-{3-[4-(diethylamino)phenyl]-1H-pyrazol-1-yl}nicotinamide] | ++ (++ means a Ki(cathepsin S)/Ki(calpain) ratio of ≧100)
